{
  "source": "the supplement of paper PMC10307832",
  "assay_in_all_cases": "relative viability (nuclei count vs DMSO), 5 days (fraction); higher = more cells survive",
  "key": {"XMD8-85": {"compound": "CN1CCN(CC1)C2=CC(=C(C=C2)NC3=NC=C4C(=N3)N(C5=CC=CC=C5C(=O)N4C)C)OC [XMD8-85]", "procedure,_shortened": "(§1)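 Five library-drug doses spaced by √10 were pinned onto vehicle-anchored 1536-well plates of lung cancer cell lines that had been kept overnight at 37 °C. Cells went 5 days without medium change, then were fixed, permeabilised and Hoechst-stained together, imaged at 4× and counted by MetaXpress. Viability is the ratio of treated-well to vehicle-well nuclei, taken as a median over plates. Plates required control CV below 25% and at least one doubling.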"}, "4EGI-1": {"compound": "O=C(O)C(Cc1ccccc1[N+](=O)[O-])=NNc1nc(-c2ccc(Cl)c(Cl)c2)cs1 (mixture of isomers) [4EGI-1]", "procedure,_shortened": "as §1"}, "XMD8-85 + Pictilisib": {"compound": "CN1CCN(CC1)C2=CC(=C(C=C2)NC3=NC=C4C(=N3)N(C5=CC=CC=C5C(=O)N4C)C)OC [XMD8-85] + CS(=O)(=O)N1CCN(Cc2cc3nc(-c4cccc5[nH]ncc45)nc(N4CCOCC4)c3s2)CC1 [Pictilisib] (partner 1 µM)", "procedure,_shortened": "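Relative viability divides the nuclei count in treated wells by that in vehicle wells. Lung cancer cell lines were seeded in 1536-well plates, dosed by pin tool the next day, and fixed and stained after 5 days in one step with final 0.05% Triton X-100, 1% formaldehyde and 1 ug/ml Hoechst. Dosing was a single drug or a fixed anchor-drug dose plus five library-drug doses (not always all listed) in √10 steps, and values are medians of duplicate plates imaged at 4×.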"}},
  "data": [
    {"cell line": "NCI-H1792", "values": [
      {"measurement": "relative viability", "setting": "XMD8-85; 0.253 µM", "value": 0.904},
      {"measurement": "relative viability", "setting": "XMD8-85; 2.53 µM", "value": 1.14},
      {"measurement": "relative viability", "setting": "XMD8-85; 8 µM", "value": 0.704},
      {"measurement": "relative viability", "setting": "4EGI-1; 0.5 µM", "value": 0.99},
      {"measurement": "relative viability", "setting": "4EGI-1; 1.581 µM", "value": 1.1},
      {"measurement": "relative viability", "setting": "4EGI-1; 5 µM", "value": 0.941},
      {"measurement": "relative viability", "setting": "4EGI-1; 15.81 µM", "value": 0.903},
      {"measurement": "relative viability", "setting": "4EGI-1; 50 µM", "value": 0.608},
      {"measurement": "relative viability", "setting": "XMD8-85 + Pictilisib; first compound 0.08 µM", "value": 0.251},
      {"measurement": "relative viability", "setting": "XMD8-85 + Pictilisib; first compound 0.253 µM", "value": 0.226},
      {"measurement": "relative viability", "setting": "XMD8-85 + Pictilisib; first compound 2.53 µM", "value": 0.276},
      {"measurement": "relative viability", "setting": "XMD8-85 + Pictilisib; first compound 8 µM", "value": 0.317}
    ]}
  ]
}
